Results reported in patent US7253212B2, “Retinol derivative and cosmetic composition comprising the same” (Coreana Cosmetics Co., Ltd., priority 2002, dated 2007).

What was measured:
[1] = Scavenging effect on free radical (DPPH); conditions: 30 min, absorbance 520 nm
Procedure: Evaluation of scavenging effect on free radical was performed using DPPH (1,1-diphenyl-2-picryl-hydrazyl, Sigma-Aldrich). 100 μl of each of the substances (the derivative of this invention, retinol and ascorbic acid) diluted to a suitable concentration and 100 μl of 400 μM DPPH solution were consequently added to a 96-well microplate and agitation was performed, followed by reaction for 30 min. at room temperature. Then, absorbance at 520 nm was measured using spectrophotometer. Control contains 100 μl of ethanol in place of the substance to be tested. The scavenging effect on free radical was calculated as following formula: scavenging effect on free radical (%)=100−{(absorbance of sample solution/absorbance of control)×100}

Human normal fibroblasts = experiment: Effect on collagen biosynthesis (procollagen type C-peptide kit); type: cell-based; conditions: 48 hours treatment
Procedure: Human normal fibroblasts (ATCC) were inoculated (2×10^4 cells/well) on 96-well microplate containing DMEM supplemented with FBS and incubated for 24 hours at 37° C. After incubation, the medium in microplate was replaced with fresh DMEM without serum comprising the derivative of this invention, retinol or ascorbic acid and then additional incubation for 48 hours was carried out. Control was not treated with any of the compounds described above. Following incubation, each well was rinsed, fresh DMEM without serum was supplied and then additional incubation for 24 hours was performed. Then, procollagen type C-peptide obtained from the supernatant of each well was measured using a kit purchased from Takara Co. (Japan) and the measured values were converted to ng/2×10^4 cells, which indicate the amount of collagen newly generated.

tyrosinase = experiment: Inhibitory effect on tyrosinase activity; type: biochemical
Procedure: A tyrosinase used herein was purchased from Sigma (U.S.A.). Tyrosine as substrate was used as a solution (0.1 mg/ml) dissolved in 0.05 M sodium phosphate buffer (pH 6.8).
0.5 ml of tyrosine solution was placed in a test tube and 0.5 ml of sample solution to be evaluated was added. The test tube was allowed to stand in incubator for 10 min. at 37° C. and then 0.5 ml of tyrosinase (200 U/ml) was added. The reaction was carried out for 10 min at 37° C. As a control group, 0.5 ml of buffer solution was added instead of the sample to be evaluated. The reaction was quenched by placing the test tube on ice and the absorbance of the resultant was measured at 475 nm with spectrophotometer. The inhibitory effect on tyrosinase activity was determined by the equation: inhibition rate on tyrosinase activity (%)=100−{(absorbance of sample/absorbance of control)×100}

Row | Inhibition rate on tyrosinase activity (%) (tyrosinase; sample conc. 10 μg/ml) | Inhibition rate on tyrosinase activity (%) (tyrosinase; sample conc. 20 μg/ml) | Inhibition rate on tyrosinase activity (%) (tyrosinase; sample conc. 50 μg/ml) | Inhibition rate on tyrosinase activity (%) (tyrosinase; sample conc. 100 μg/ml) | Inhibition rate on tyrosinase activity (%) (tyrosinase; sample conc. 200 μg/ml) | Inhibition rate on tyrosinase activity (%) (tyrosinase; sample conc. 500 μg/ml) | Structure (SMILES) | Scavenging effect on free radical (%) ([1]; concentration 0.5 mM) | Scavenging effect on free radical (%) ([1]; concentration 1 mM) | Amount of Collagen Newly Generated (Human normal fibroblasts; addition amount 50 μg) [ng/2 × 10^4 cells] | Amount of Collagen Newly Generated (Human normal fibroblasts; addition amount 100 μg) [ng/2 × 10^4 cells] | Amount of Collagen Newly Generated (Human normal fibroblasts; addition amount 200 μg) [ng/2 × 10^4 cells]
1 | 0.6 | 1.1 | 3.2 | 3.9 | 5.6 | 9.2 | CC1=C(/C=C/C(C)=C/C=C/C(C)=C/CO)C(C)(C)CCC1 [Retinol] | 0.4 | 1.6 | 174 | 233 | 286
2 | 8.1 | 10.7 | 13.8 | 32.9 | 47.1 | 78.8 | CC1=C(/C=C/C(C)=C/C=C/C(C)=C/COC(=O)COC2=C(O)C(=O)OC2C(O)CO)C(C)(C)CCC1 (stereo not drawn) [Derivative of this invention] | 95.7 | 96.4 | 215 | 290 | 349
3 | 5.1 | 9.8 | 13.2 | 22.5 | 34.8 | 62.4 | O=C1O[C@H]([C@@H](O)CO)C(O)=C1O [L-ascorbic acid] | 91.2 | 91.9 | 198 | 267 | 314
